Data published in ChEMBL document CHEMBL1141048, “5-Substituted 4-anilinoquinazolines as potent, selective and orally active inhibitors of erbB2 receptor tyrosine kinase” (Bioorg Med Chem Lett, 2005).
Blank lines part the entries; values can stand above or below the compound they belong to.

How the values were obtained:
BT-474 = assay: Inhibitory concentration of compound against BT474C using standard MTT colorimetric endpoint; conditions: Homo sapiens
[1] = Plasma concentration of compound after 2 hours of administration of 100 mg/kg through peroral route; conditions: mouse, po
[2] = Plasma concentration of compound after 4 hours of administration of 100 mg/kg through peroral route; conditions: mouse, po
[3] = Plasma concentration of compound after 6 hours of administration of 100 mg/kg through peroral route; conditions: mouse, po
[4] = Plasma concentration of compound after 16 hours of administration of 100 mg/kg through peroral route; conditions: mouse, po
[5] = Plasma concentration of compound after 24 hours of administration of 100 mg/kg through peroral route; conditions: mouse, po
[6] = Clearance of compound in Mice after administration of 5 mg/kg through peroral route; format: ADME, organism-based; parameters: dose 5 mg/kg, route oral; conditions: mouse, in vivo, po
[7] = Clearance of compound in Mice after administration of 2 mg/kg through intra venous route; format: ADME, organism-based; parameters: dose 2 mg/kg; conditions: mouse, in vivo, iv
[8] = Steady state volume of Distribution of compound in Mice after administration of 5 mg/kg through peroral route; format: ADME, organism-based; parameters: dose 5 mg/kg, route oral; conditions: mouse, in vivo, po
[9] = Steady state volume of Distribution of compound in Mice after administration of 2 mg/kg through intra venous route; format: ADME, organism-based; parameters: dose 2 mg/kg; conditions: mouse, in vivo, iv, read-out: Vdss
[10] = Bioavailability of compound in Mice after administration of 5 mg/kg through peroral route; format: ADME, organism-based; conditions: mouse, in vivo, po, read-out: Bioavailabiility
[11] = Bioavailability of compound in Mice after administration of 2 mg/kg through intra venous route; format: ADME, organism-based; conditions: mouse, in vivo, intravenous, read-out: Bioavailabiility
[12] = AUC in Mice after administration of 5 mg/kg through peroral route; format: ADME, organism-based; parameters: dose 5 mg/kg, route oral; conditions: mouse, plasma, po
[13] = molecular target: Epidermal growth factor receptor (Homo sapiens, UniProt P00533); assay: Inhibitory concentration against EGFR kinase phosphorylation using synthetic peptide as a substrate
[14] = molecular target: T1, Receptor tyrosine-protein kinase erbB-2 (Homo sapiens, UniProt P04626); assay: Inhibitory concentration against erbB2 kinase phosphorylation using synthetic peptide as a substrate
KB [15] = assay: Inhibitory concentration of compound against KB Basal; conditions: Homo sapiens
KB [16] = assay: Inhibitory concentration of compound against KB using a sandwich ELISA; conditions: Homo sapiens
[17] = molecular target: T1, Receptor tyrosine-protein kinase erbB-2; assay: Inhibitory concentration against erbB2 autophosphorylation in MCF-7 breast carcinoma cell line; format: functional, cell-based, MCF7
[18] = AUC in Mice after administration of 5 mg/kg through oral route; conditions: mouse, plasma

Epidermal growth factor receptor, sequence (P00533 whole entry): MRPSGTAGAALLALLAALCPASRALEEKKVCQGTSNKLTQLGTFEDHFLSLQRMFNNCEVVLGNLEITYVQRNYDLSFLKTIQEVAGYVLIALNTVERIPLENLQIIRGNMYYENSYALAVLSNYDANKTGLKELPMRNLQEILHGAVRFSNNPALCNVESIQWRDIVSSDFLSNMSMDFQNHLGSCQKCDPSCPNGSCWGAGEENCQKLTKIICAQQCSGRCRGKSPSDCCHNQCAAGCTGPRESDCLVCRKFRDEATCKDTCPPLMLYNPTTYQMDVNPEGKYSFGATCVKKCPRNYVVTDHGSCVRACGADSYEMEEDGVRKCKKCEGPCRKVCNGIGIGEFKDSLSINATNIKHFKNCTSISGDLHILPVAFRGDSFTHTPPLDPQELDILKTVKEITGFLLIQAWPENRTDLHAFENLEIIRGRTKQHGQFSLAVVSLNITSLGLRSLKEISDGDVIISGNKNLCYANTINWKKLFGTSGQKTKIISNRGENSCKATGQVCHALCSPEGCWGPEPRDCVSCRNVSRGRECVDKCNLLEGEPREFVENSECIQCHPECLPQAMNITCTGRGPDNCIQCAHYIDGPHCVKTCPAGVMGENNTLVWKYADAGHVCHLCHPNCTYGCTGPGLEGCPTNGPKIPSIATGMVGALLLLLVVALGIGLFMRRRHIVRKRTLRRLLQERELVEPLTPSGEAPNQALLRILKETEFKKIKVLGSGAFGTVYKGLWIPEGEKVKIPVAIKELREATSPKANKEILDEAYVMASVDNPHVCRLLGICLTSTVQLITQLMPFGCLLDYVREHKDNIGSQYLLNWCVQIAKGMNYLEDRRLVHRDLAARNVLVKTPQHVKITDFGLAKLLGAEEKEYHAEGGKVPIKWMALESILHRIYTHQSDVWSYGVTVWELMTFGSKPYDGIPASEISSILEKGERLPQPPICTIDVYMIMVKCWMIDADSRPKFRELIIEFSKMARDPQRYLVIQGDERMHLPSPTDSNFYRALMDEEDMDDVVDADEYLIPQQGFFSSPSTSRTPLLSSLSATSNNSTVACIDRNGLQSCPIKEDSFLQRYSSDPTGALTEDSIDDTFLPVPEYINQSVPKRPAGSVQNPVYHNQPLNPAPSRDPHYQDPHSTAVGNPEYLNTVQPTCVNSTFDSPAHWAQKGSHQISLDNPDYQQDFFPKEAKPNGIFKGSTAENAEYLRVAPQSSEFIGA
T1 sequence (P04626 whole entry): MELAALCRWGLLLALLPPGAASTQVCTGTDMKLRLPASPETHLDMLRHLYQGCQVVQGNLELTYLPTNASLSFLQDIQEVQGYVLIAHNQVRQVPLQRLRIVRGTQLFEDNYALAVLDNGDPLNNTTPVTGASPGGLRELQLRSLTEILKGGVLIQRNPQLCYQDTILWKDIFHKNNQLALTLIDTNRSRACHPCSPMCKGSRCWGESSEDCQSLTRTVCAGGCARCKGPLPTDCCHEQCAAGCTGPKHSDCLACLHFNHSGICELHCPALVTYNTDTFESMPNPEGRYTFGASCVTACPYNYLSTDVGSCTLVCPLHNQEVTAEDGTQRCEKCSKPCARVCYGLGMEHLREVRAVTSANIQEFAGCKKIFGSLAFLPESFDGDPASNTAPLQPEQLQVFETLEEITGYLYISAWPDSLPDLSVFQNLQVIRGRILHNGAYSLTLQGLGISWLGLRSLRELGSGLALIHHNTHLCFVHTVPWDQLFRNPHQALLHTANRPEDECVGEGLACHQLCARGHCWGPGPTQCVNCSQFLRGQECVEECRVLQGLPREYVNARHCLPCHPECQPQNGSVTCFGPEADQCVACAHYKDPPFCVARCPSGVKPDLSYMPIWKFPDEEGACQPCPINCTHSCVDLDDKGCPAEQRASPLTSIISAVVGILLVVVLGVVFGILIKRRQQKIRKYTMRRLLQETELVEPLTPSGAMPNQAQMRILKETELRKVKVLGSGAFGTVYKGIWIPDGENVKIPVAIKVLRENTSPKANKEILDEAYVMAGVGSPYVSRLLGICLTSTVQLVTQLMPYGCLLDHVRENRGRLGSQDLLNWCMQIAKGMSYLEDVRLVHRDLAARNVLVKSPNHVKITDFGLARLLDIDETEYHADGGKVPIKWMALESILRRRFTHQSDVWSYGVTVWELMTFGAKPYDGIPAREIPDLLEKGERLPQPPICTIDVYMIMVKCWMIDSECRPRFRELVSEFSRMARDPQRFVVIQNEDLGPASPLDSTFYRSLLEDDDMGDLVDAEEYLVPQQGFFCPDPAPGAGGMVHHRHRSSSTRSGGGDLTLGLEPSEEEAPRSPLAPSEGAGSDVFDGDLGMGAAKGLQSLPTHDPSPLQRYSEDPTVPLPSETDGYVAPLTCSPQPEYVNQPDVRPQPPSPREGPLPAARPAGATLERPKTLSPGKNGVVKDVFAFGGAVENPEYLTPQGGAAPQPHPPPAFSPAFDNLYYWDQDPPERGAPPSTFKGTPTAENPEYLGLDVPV

IC50 (BT-474): 41 nM | concentration at 2 h [1]: 9.2 µM | concentration at 4 h [2]: 7.2 µM | concentration at 6 h [3]: 6.9 µM | concentration at 16 h [4]: 2.2 µM | concentration at 24 h [5]: 1.1 µM | CL/F [6]: 15 mL/min/kg | clearance [7]: 15 mL/min/kg | Vdss [8]: 2.6 L/kg | Vd [9]: 2.6 L/kg | bioavailability [10]: 50% | bioavailability [11]: 50% | AUC [12]: 5.5 µM·h | IC50 [13]: 140 nM | IC50 [14]: < 2 nM | IC50 (KB [15]): 11900 nM | IC50 (KB [16]): 2600 nM | IC50 [17]: 61 nM | AUC [18]: 5.5 µM·h
Structure (SMILES): CN1CCC(Oc2cccc3ncnc(Nc4ccc(OCc5ccccn5)c(Cl)c4)c23)CC1

IC50 [13]: 2400 nM | IC50 [14]: 24 nM
Structure (SMILES): Clc1cc(Nc2ncnc3cccc(OC4CCOCC4)c23)ccc1OCc1ccccn1

IC50 [13]: 2100 nM | IC50 [14]: 70 nM
Structure (SMILES): CN1CCC(Oc2cccc3ncnc(Nc4ccc(OCc5ccccn5)cc4)c23)CC1

IC50 [13]: 440 nM | IC50 [14]: 24 nM
Structure (SMILES): COc1cccc2ncnc(Nc3ccc(OCc4ccccn4)c(Cl)c3)c12

IC50 [13]: 698 nM | IC50 [14]: < 2 nM
Structure (SMILES): CN1CCC(Oc2cccc3ncnc(Nc4ccc(OCc5cscn5)c(Cl)c4)c23)CC1

IC50 [13]: 1800 nM | IC50 [14]: 1100 nM
Structure (SMILES): COc1ccc(Nc2ncnc3cccc(OC4CCN(C)CC4)c23)cc1Cl

IC50 (BT-474): 2.7 nM | IC50 [13]: 5 nM | IC50 [14]: < 2 nM | IC50 (KB [15]): 1700 nM | IC50 (KB [16]): 460 nM | IC50 [17]: 56 nM
Structure (SMILES): CN1CCC(Oc2cccc3ncnc(Nc4ccc(OCc5cccc(F)c5)c(Cl)c4)c23)CC1

IC50 [13]: 59 nM | IC50 [14]: 56 nM
Structure (SMILES): COc1cc2ncnc(Nc3ccc(OCc4ccccn4)c(C)c3)c2cc1OC

IC50 [13]: 690 nM | IC50 [14]: < 2 nM
Structure (SMILES): CN1CCC(Oc2cccc3ncnc(Nc4ccc(OCc5cnccn5)c(Cl)c4)c23)CC1
